The values that follow come from the supplement of paper PMC11061612.

Test [1] concerns FADU (Head and Neck Carcinoma). The test can be described thus: Bliss excess, mean over the matrix (fraction); higher = more synergy. The procedure, abridged:
(§1)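 Cell lines grown in DMEM/F12 or RPMI with 10% FBS were plated in 1536-well plates and held 24 hours at 37°C, 5% CO2 before 72 hours of exposure to two-drug dose matrices, with DMSO typically at 0.2%. CellTiter-Glo 2.0 luminescence gave viability, which was converted to inhibition. Vehicle wells were set to 0 and blank wells to 1. Combination Emax is the second-highest inhibition in the matrix, and Bliss excess is the observed combination effect minus the expected EA + EB − EA·EB, where EA and EB are the single-agent effects.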

For test [2], the system named is NCI-H446 (Small Cell Lung Carcinoma). Described as above. An outline of the steps:
as §1

Test [3] relates to HSC-39 (Gastric Carcinoma). Described as above. The procedure, abridged: as §1
The test system of test [4] is NB12 (Neuroblastoma). The description is as above. An outline of the steps: as §1
For test [5], the system named is LXF-289 (Lung Adenocarcinoma). Described as above. The procedure, abridged:
as §1

For test [6], the system named is L-1236 (Hodgkin's Lymphoma). The test is described as above. An outline of the steps: as §1
For test [7], the system named is SK-MEL-2 (Melanoma). The description is as above. The procedure, abridged: as §1
Test [8] relates to OPM-2 (Plasma Cell Myeloma). The description is as above. The procedure, abridged:
as §1

The test system of test [9] is NB12 (Neuroblastoma). The test can be described thus: combination Emax (second highest fraction inhibited in the dose matrix, 72 h); higher = more inhibition; extreme values may be limits of the assay. An outline of the steps: as §1
For test [10], the system named is SK-MEL-2 (Melanoma). The description is as above. An outline of the steps: as §1
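Throughout, for Bliss excess, mean over the matrix: after 72 h of two-drug dosing.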

As to `NC1(C(=O)N[C@@H](CCO)c2ccc(Cl)cc2)CCN(c2ncnc3[nH]ccc23)CC1` [Capivasertib] + CC(C)n1c(=O)n(C)c2cnc3cc(F)c(-c4ccc(OCCCN5CCCCC5)nc4)cc3c21 [AZD1390] (first compound max 10 µM, 7x7, partner max 0.3 µM), the Bliss excess in test [1] is -0.0562; in test [2], -0.0866; in test [3], 0.0112; in test [4], 0.0009; in test [5], -0.0825; in test [6], 0.0156. For the same compound, the results for the Bliss excess in [7] and in test [8] were -0.0125 and -0.0346, respectively. The “combination Emax” value stood at 0.504 in test [9] and 0.176 in [10].
Take `NC1(C(=O)N[C@@H](CCO)c2ccc(Cl)cc2)CCN(c2ncnc3[nH]ccc23)CC1` [Capivasertib] + CCN(CCO)CCCOc1ccc2c(Nc3cc(CC(=O)Nc4cccc(F)c4)[nH]n3)ncnc2c1 [AZD2811] (first compound max 10 µM, 7x7, partner max 1 µM): the Bliss excess in [1] is -0.0125; in [2], -0.0168; in test [3], -0.0799; in [4] it was -0.0279; in [5], 0.0856; in test [6], -0.024. Also, the Bliss excess in test [7] was -0.0383; in [8], 0.0027. Moreover, the figures for the “combination Emax” value in [9] and in test [10] were 0.783 and 0.0759, respectively.
For the compound `NC1(C(=O)N[C@@H](CCO)c2ccc(Cl)cc2)CCN(c2ncnc3[nH]ccc23)CC1` [Capivasertib] + COc1nnc2ccc(N3CCC(c4ccc(OCCN5CCN(C)C(=O)[C@H]5C)cc4)CC3)nn12 [AZD5153] (first compound max 10 µM, 7x7, partner max 1 µM), the Bliss excess in test [1] was 0.032; in [2], 0.0021; in [3], 0.0142; in test [4] it was 0.0031; in test [5], 0.0995; in test [6] it was -0.0938. For the same compound, the Bliss excess in test [7] was -0.0015; in [8], -0.0129. Besides, the “combination Emax” value turned out to be 0.985 in test [9] and 0.578 in test [10].
Regarding `NC1(C(=O)N[C@@H](CCO)c2ccc(Cl)cc2)CCN(c2ncnc3[nH]ccc23)CC1` [Capivasertib] + C[C@@H]1COCCN1C2=NC(=NC(=C2)C3(CC3)[S@](=N)(=O)C)C4=C5C=CNC5=NC=C4 [AZD6738] (first compound max 10 µM, 7x7, partner max 10 µM), the Bliss excess was 0.0096 in test [1]; -0.0166 in [2]; -0.0181 in [3]; -0.0449 in test [4]; -0.0889 in test [5]; -0.0645 in [6]. Besides, the results for the Bliss excess in test [7] and in test [8] were -0.0335 and -0.0746, respectively. For the same compound, the “combination Emax” value in [9] worked out at 0.738; in test [10], 0.152.
Turning to `NC1(C(=O)N[C@@H](CCO)c2ccc(Cl)cc2)CCN(c2ncnc3[nH]ccc23)CC1` [Capivasertib] + Cn1cnc2c(F)c(Nc3ccc(Br)cc3Cl)c(C(=O)NOCCO)cc21 [Selumetinib] (first compound max 10 µM, 7x7, partner max 10 µM), the Bliss excess was -0.0297 in test [1]; 0.0534 in [2]; 0.2 in [3]; 0.0154 in test [4]; 0.0075 in test [5]; 0.0433 in test [6]. Moreover, the figures for the Bliss excess in [7] and in [8] were 0.0662 and 0.0515, respectively. The “combination Emax” value in [9] is 0.504; in test [10] it was 0.843.
`Cc1nc(Nc2ncc(C(=O)Nc3c(C)cccc3Cl)s2)cc(N2CCN(CCO)CC2)n1` [Dasatinib] + CC(=O)Nc1cccc(-n2c(=O)n(C3CC3)c(=O)c3c(Nc4ccc(I)cc4F)n(C)c(=O)c(C)c32)c1 [Trametinib] (first compound max 2 µM, 7x7, partner max 1 µM): the Bliss excess is -0.0972 in test [1]; 0.112 in [2]; -0.0706 in test [3]; 0.0319 in test [4]; -0.0439 in [5]; 0.008 in test [6]. The Bliss excess in test [7] was -0.0571; in test [8], 0.0108. Moreover, the “combination Emax” value in [9] was 0.266; in test [10], 0.94.
In the case of `COc1cc2ncnc(Nc3ccc(F)c(Cl)c3)c2cc1OCCCN1CCOCC1` [Gefitinib] + CC(C)n1c(=O)n(C)c2cnc3cc(F)c(-c4ccc(OCCCN5CCCCC5)nc4)cc3c21 [AZD1390] (first compound max 10 µM, 7x7, partner max 0.3 µM), the Bliss excess in test [1] is -0.0619; in test [2] it was -0.0082; in [3], 0.0185; in test [4], -0.0668; in [5], -0.0717; in test [6], -0.0467. Also, the values for the Bliss excess in test [7] and in test [8] were -0.0348 and -0.0151, respectively. For the same compound, the “combination Emax” value in test [9] turned out to be 0.139; in test [10] it was 0.169.
Consider `CS(=O)(=O)CCNCc1ccc(-c2ccc3ncnc(Nc4ccc(OCc5cccc(F)c5)c(Cl)c4)c3c2)o1` [Lapatinib] + C[C@@H](Oc1cc(-c2cnn(C3CCNCC3)c2)cnc1N)c1c(Cl)ccc(F)c1Cl [Crizotinib] (first compound max 10 µM, 7x7, partner max 10 µM), for which the Bliss excess in [1] was -0.0302; in test [2], -0.0344; in test [3], -0.0117; in test [4] it was -0.0622; in test [5], -0.0848; in test [6] it was 0.0239. Also, the Bliss excess was -0.0232 in test [7] and -0.0611 in [8]. In addition, the “combination Emax” value in [9] is 0.843; in [10] it was 0.62.
Take `CC(=O)c1c(C)c2cnc(Nc3ccc(N4CCNCC4)cn3)nc2n(C2CCCC2)c1=O` [Palbociclib] + CC1(C)CCC(CN2CCN(c3ccc(C(=O)NS(=O)(=O)c4ccc(NCC5CCOCC5)c([N+](=O)[O-])c4)c(Oc4cnc5[nH]ccc5c4)c3)CC2)=C(c2ccc(Cl)cc2)C1 [Venetoclax] (first compound max 10 µM, 7x7, partner max 1 µM): the Bliss excess in [1] was -0.0596; in test [2], 0.0219; in test [3] it was -0.0476; in [4], 0.0237; in test [5], -0.0189; in [6], 0.0003. Moreover, the values for the Bliss excess in test [7] and in test [8] were -0.0492 and 0.017, respectively. The “combination Emax” value in test [9] was 0.614; in test [10] it was 0.11.
